# Reference: ChEMBL document CHEMBL4052762, “Synthesis and biological evaluation of pyrrole-based chalcones as CYP1 enzyme inhibitors, for possible prevention of cancer and overcoming cisplatin resistance” (Bioorg Med Chem Lett, 2017)
# Tests used:
# Cytochrome P450 1A1 [1] = biological target: T1, Cytochrome P450 1A1 (Homo sapiens, UniProt P04798); experiment: Inhibition of human CYP1A1 transfected in HEK293 cells assessed as protection from CYP1A1 mediated B[a]P toxicity at 8 times IC50 by MTT assay; assay type: cell-based
# T1 sequence (P04798 whole entry): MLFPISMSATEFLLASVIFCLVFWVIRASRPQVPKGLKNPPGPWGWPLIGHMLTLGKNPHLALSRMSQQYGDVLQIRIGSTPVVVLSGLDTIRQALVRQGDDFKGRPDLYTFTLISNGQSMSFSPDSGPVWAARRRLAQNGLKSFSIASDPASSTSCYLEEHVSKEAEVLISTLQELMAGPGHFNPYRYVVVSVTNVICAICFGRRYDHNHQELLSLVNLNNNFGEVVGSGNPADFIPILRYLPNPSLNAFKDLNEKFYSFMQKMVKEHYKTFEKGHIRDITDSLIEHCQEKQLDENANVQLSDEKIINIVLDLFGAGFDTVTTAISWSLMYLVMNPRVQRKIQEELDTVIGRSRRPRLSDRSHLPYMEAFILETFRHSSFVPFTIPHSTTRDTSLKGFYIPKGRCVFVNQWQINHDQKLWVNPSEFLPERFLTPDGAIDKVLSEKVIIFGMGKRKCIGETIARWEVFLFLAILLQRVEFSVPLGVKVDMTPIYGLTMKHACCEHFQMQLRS
# Homo sapiens [2] = organism: Homo sapiens; experiment: Selectivity ratio of IC50 for human CYP2C19 bound to yeast microsomal membrane to IC50 for human CYP1B1 bound to yeast microsomal membrane
# Homo sapiens [3] = organism: Homo sapiens; experiment: Selectivity ratio of IC50 for human CYP2D6 bound to yeast microsomal membrane to IC50 for human CYP1A2 bound to yeast microsomal membrane
# [4] = Selectivity ratio of IC50 for human CYP2C19 expressed in HEK293 cells to IC50 for human CYP1A1 expressed in HEK293 cells
# [5] = Selectivity ratio of IC50 for human CYP2D6 expressed in HEK293 cells to IC50 for human CYP1A1 expressed in HEK293 cells
# [6] = Selectivity ratio of IC50 for human CYP2C19 expressed in HEK293 cells to IC50 for human CYP1A2 expressed in HEK293 cells
# Cytochrome P450 1B1 = biological target: T2, Cytochrome P450 1B1 (Homo sapiens, UniProt Q16678); experiment: Inhibition of human CYP1B1 transfected in HEK293 cells assessed as reduction in cisplatin EC50 at 20 uM by MTT assay; assay type: cell-based; details: hek293, 20 µM
# T2 sequence (Q16678 whole entry): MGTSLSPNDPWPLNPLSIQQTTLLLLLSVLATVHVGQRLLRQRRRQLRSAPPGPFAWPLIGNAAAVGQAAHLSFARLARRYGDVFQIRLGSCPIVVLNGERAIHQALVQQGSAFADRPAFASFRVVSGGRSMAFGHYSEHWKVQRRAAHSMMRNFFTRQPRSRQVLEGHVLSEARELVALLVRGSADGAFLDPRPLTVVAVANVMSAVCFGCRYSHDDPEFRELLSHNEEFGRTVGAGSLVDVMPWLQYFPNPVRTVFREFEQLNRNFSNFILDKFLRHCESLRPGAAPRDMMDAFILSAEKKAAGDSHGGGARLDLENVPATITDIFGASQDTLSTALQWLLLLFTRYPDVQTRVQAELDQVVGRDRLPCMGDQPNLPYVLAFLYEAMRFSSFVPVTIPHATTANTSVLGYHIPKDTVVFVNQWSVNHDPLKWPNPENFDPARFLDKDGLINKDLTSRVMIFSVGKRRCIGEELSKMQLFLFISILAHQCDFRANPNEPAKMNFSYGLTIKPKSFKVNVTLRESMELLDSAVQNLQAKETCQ
# Cytochrome P450 1A1 [7] = biological target: T1, Cytochrome P450 1A1; experiment: Inhibition of human CYP1A1 transfected in HEK293 cells assessed as protection against CYP1A1 mediated B[a]P toxicity at 20 uM by MTT assay; assay type: cell-based; details: hek293, 20 µM
SMILES,inhibition (INH) (Cytochrome P450 1A1 [1]),Ratio IC50 (Homo sapiens [2]),Ratio IC50 (Homo sapiens [3]),Ratio IC50 [4],Ratio IC50 [5],Ratio IC50 [6],inhibition (INH) (Cytochrome P450 1B1),inhibition (INH) (Cytochrome P450 1A1 [7])
COc1ccccc1/C=C/C(=O)c1ccc[nH]1,Active,> 20,> 20,>20,>20,>20,,
O=C(/C=C/c1ccc(OC(F)(F)F)cc1)c1ccc[nH]1,,,,,,,Not Active,Not Active
O=C(/C=C/c1ccccc1Cl)c1ccc[nH]1,,> 20,> 20,>20,>20,>20,,Not Active
